Measured values as given in PubChem BioAssay (NCI).
Where “and” joins values, the source holds several entries; their conditions need not be identical. Equal entries are not always repeated.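 Tested at 5 concentrations; 48 h exposure; 96-well plates; endpoints linearly interpolated, else capped at highest concentration. GI50 marks 50% less growth. The concentration for full growth arrest is given as TGI.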

tested on: A549 NSCLC; assay: growth of human tumour cells (NCI), 48 h

SMILES | GI50 | TGI
CN(C)c1ccc(/C=C\C2=[N+](C)c3ccccc3C2(C)C)cc1 | 1.06 µM | > 62 µM
COc1cc2c(c3oc4c(O)cccc4c(=O)c13)CC(C(C)(O)CO)O2 (stereo not drawn) | – | > 100 µM
CC(=O)OC1OC([C@@H]2c3cccc(O)c3C(=O)c3c(O)cc(C)cc32)C(O)C(O)C1O (stereo partly drawn) | 0.109 µM | 1.94 µM
Nc1nc(-n2c(-c3ccccc3)nc3c(Br)cc(Br)cc3c2=O)nnc1-c1cccc(Cl)c1Cl | 7.41 µM | > 100 µM
C[N+](C)(C)CC(=O)N/N=C(/CC(=O)CC(C1=C(O)c2ccccc2OC1)c1ccccc1)C(=O)Nc1cccc(Cl)c1 (stereo not drawn) | – | > 100 µM
COC(=O)/C=C1\S/C(=N\NC(=O)c2cc3ccc2/C=C\c2ccc(cc2)/C=C\3)N(c2ccccc2)C1=O | 2.83 µM | 8.37 µM
COC([CH2][Hg][n]1cnc2c1c(=O)n(C)c(=O)n2C)CN1C(=O)c2ccccc2S1(=O)=O (stereo not drawn) | > 100 µM | > 100 µM
COc1ccc(CC2c3cc4c(cc3CCN2C)OCO4)c(C=O)c1OC (stereo not drawn) | – | > 100 µM
CN1CCCCC1CCN1c2ccccc2Sc2ccc(Cl)cc21 (stereo not drawn) | 3.31 µM | 11.8 µM
C=C(C)C(OC)C(O)CC1(C)CC(O)CC(C)(C2CCC3OC(C4(C)CCC(Br)C(C)(C)O4)CCC3(C)O2)O1 (stereo not drawn) | 21 µM | > 58 µM
Cc1cc(-c2nc(C(=O)Nc3cc4oc(N5CCOCC5)nc4nc3N3CC[C@@H](O)C3)co2)ccn1 | 28.9 µM | > 100 µM
Cc1ccc(Cl)c2c(N=Nc3ccccc3[N+](=O)[O-])c(O)[nH]c12 | – | > 100 µM
OC1CSSC1Cn1cnc2c(Nc3ccc(OCc4cccc(F)c4)c(Cl)c3)ncnc21 (stereo not drawn) | 0.742 µM | 1.88 µM
C=CCOc1ccc2c(C)cc(=O)oc2c1C | – | > 100 µM
Nc1c(C(=O)c2cccc(CCS(N)(=O)=O)c2)cnn1-c1ccc(F)cc1 | > 25 µM | > 25 µM
C=CCO[C@H]1CO[C@H]2[C@@H]1OC[C@@H]2Oc1ccc(Nc2ccnc(Nc3ccc(O[C@H]4CO[C@H]5[C@@H]4OC[C@@H]5OCC=C)c(Cl)c3)n2)cc1Cl | 1.84 µM | 3.95 µM
OCc1cc2ccccc2c2c3c(ccc12)OCO3 | 30.3 µM | 126 µM
C[C@@H](Oc1cc(-n2cnc3ccc(CN4CCN(C)CC4)cc32)sc1C(N)=O)c1ccccc1C(F)(F)F | 0.0211 µM and 0.0306 µM | 10.8 µM and > 10 µM
CCOC1Oc2ccccc2C(=O)/C1=C/Nc1ccc(C(C)=O)cc1 (stereo not drawn) | 50.3 µM | > 100 µM
O=C(CCNC12CC3CC(CC(C3)C1)C2)c1ccccc1 | – | > 100 µM

SMILES | GI50 | TGI
COc1cccc(-c2cc(-c3cccc(NS(C)(=O)=O)c3)nc(N)c2C#N)c1O | 0.293 µM | > 100 µM
CCN1CCN(Cc2ccc(NC(=O)c3cccc(C#Cc4cccc5[nH]nc(N)c45)c3)cc2C(F)(F)F)CC1 | 1.13 µM | 2.48 µM
Cc1ccsc1C(=S)Nc1ccc(Cl)c(/C=N/OC(C)(C)C)c1 | – | > 100 µM
CC(C)=CCC\C(C)=C/C=C/C(C)=C\C=C\C(C)=C/C=C/C=C(C)\C=C\C=C(C)/C=C/C=C(/C)CCC=C(C)C | – | > 100 µM
NC(N)=NS(=O)(=O)c1ccc(Nc2c3ccccc3nc3c(C(=O)NCCO)cccc23)cc1 | 20.1 µM | –
COc1cccc(C2c3cc4c(cc3OC(C)(N3CCCC3)C2C)OCO4)c1O (stereo not drawn) | – | 75 µM
COC(=O)CC[N+]1=CCC(c2ccccc2)(c2ccccc2)O1 | – | > 100 µM
CCN(CC)N=Nc1c(C(N)=O)n[nH]c1C | – | > 100 µM
O=C1NC(=NCCc2cccc(F)c2)S/C1=C\c1ccc2ncccc2c1 | 1.55 µM | > 25 µM
COc1cc(/C=N\NC(=O)CN2CCN(c3cc4c(cc3F)c(=O)c(C(=O)N/N=C/c3cc(OC)c(OC)c(OC)c3)cn4C3CC3)CC2)cc(OC)c1OC | > 24.6 µM | > 100 µM
OCCN(CCO)c1ncnc2c1ncn2Cc1ccc(CCl)cc1 | 18.3 µM | 53.7 µM
Cc1ccc2c(C)c3c(ccc4ccccc43)c[n+]2c1 | 3.85 µM | > 100 µM
Cc1ccc(CN2CCC(C(=O)Nc3ccc(-c4cc5ccccc5[nH]4)cc3)CC2)o1 | > 100 µM | > 100 µM
C=CC(=O)Nc1cc(Nc2ncc(C(=O)OC(C)C)c(-c3cn(C)c4ccccc34)n2)c(OC)cc1N(C)CCN(C)C | 2.89 µM | 21.5 µM
O=C(Nc1ccc(F)cc1)Nc1ccc(Cl)c([N+](=O)[O-])c1 | 3.09 µM | 16.3 µM
CCOC(=O)Cn1c(C(F)(F)F)nc2nc(Cl)c(Cl)nc21 | – | > 100 µM
CC1CCc2nc[nH]c(=O)c21 (stereo not drawn) | > 100 µM | > 100 µM
Fc1[nH]nc2ccc([C@@H]3Nc4ccc5[nH]ncc5c4[C@H]4C5CCC(C5)[C@@H]34)cc12 (stereo partly drawn) | 1.03 µM | 12.1 µM
COC1/C=C/OC2(C)Oc3c(C)c(O)c4c(O)c(c(/C=N/Nc5ccc([N+](=O)[O-])cc5[N+](=O)[O-])c(O)c4c3C2=O)NC(=O)C(C)=C/C=C/C(C)C(O)C(C)C(O)C(C)C(OC(C)=O)C1C (stereo not drawn) | 8.01 µM | 17.3 µM

tested on: IGROV1 ovarian; assay: growth of human tumour cells (NCI), 48 h

SMILES | GI50 | TGI
CN(C)c1ccc(/C=C\C2=[N+](C)c3ccccc3C2(C)C)cc1 | 0.458 µM | > 50.1 µM
COc1cc2c(c3oc4c(O)cccc4c(=O)c13)CC(C(C)(O)CO)O2 (stereo not drawn) | – | > 100 µM
Nc1nc(-n2c(-c3ccccc3)nc3c(Br)cc(Br)cc3c2=O)nnc1-c1cccc(Cl)c1Cl | 12.9 µM | 45.9 µM
C[N+](C)(C)CC(=O)N/N=C(/CC(=O)CC(C1=C(O)c2ccccc2OC1)c1ccccc1)C(=O)Nc1cccc(Cl)c1 (stereo not drawn) | – | > 100 µM
COC(=O)/C=C1\S/C(=N\NC(=O)c2cc3ccc2/C=C\c2ccc(cc2)/C=C\3)N(c2ccccc2)C1=O | 1.66 µM | 3.27 µM
COC([CH2][Hg][n]1cnc2c1c(=O)n(C)c(=O)n2C)CN1C(=O)c2ccccc2S1(=O)=O (stereo not drawn) | > 100 µM | > 100 µM
COc1ccc(CC2c3cc4c(cc3CCN2C)OCO4)c(C=O)c1OC (stereo not drawn) | – | > 100 µM
CN1CCCCC1CCN1c2ccccc2Sc2ccc(Cl)cc21 (stereo not drawn) | 3.24 µM | 10.6 µM
C=C(C)C(OC)C(O)CC1(C)CC(O)CC(C)(C2CCC3OC(C4(C)CCC(Br)C(C)(C)O4)CCC3(C)O2)O1 (stereo not drawn) | 24 µM | > 57.1 µM
Cc1cc(-c2nc(C(=O)Nc3cc4oc(N5CCOCC5)nc4nc3N3CC[C@@H](O)C3)co2)ccn1 | 12.7 µM | 72.7 µM
COc1cc2c(cc1OCCCCN1CCN(CC(=O)Nc3ccc(Cl)cc3C(=O)c3ccccc3Cl)CC1)N=CC1CCCN1C2=O (stereo not drawn) | 0.229 µM | 0.519 µM
Cc1ccc(Cl)c2c(N=Nc3ccccc3[N+](=O)[O-])c(O)[nH]c12 | – | > 100 µM
FC(F)(F)c1cccc(Nc2nc(-c3ccccc3)nc3ncccc23)c1 | 4.25 µM | 16.8 µM
OC1CSSC1Cn1cnc2c(Nc3ccc(OCc4cccc(F)c4)c(Cl)c3)ncnc21 (stereo not drawn) | 4.46 µM | 13.6 µM
C=CCOc1ccc2c(C)cc(=O)oc2c1C | – | > 100 µM
Nc1c(C(=O)c2cccc(CCS(N)(=O)=O)c2)cnn1-c1ccc(F)cc1 | > 25 µM | > 25 µM
C=CCO[C@H]1CO[C@H]2[C@@H]1OC[C@@H]2Oc1ccc(Nc2ccnc(Nc3ccc(O[C@H]4CO[C@H]5[C@@H]4OC[C@@H]5OCC=C)c(Cl)c3)n2)cc1Cl | 1.79 µM | 3.54 µM
OCc1cc2ccccc2c2c3c(ccc12)OCO3 | 33.6 µM | 111 µM
COc1cnc2c(c1)C(=O)c1c-2n(CCCN2CCOCC2)c(=O)c2cc(F)ccc12 | 0.354 µM | > 100 µM
